T1: recombinant GST-MSUT2 binding to synthetic poly(A) RNA (Homo sapiens, UniProt Q6PJT7)
T1 construct: fused on or other part: GST at the N-terminus (pGEX6P-1 vector)
T1 sequence (Q6PJT7 595-719 limits assumed): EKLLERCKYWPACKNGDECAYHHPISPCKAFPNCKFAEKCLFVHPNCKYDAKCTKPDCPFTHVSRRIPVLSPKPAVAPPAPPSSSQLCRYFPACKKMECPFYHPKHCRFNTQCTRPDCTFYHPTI


Legend:
[1] = molecular target: T1, recombinant GST-MSUT2 binding to synthetic poly(A) RNA; assay: MSUT2/poly(A) RNA AlphaScreen assay; conditions: dose validated hits of pilot AlphaScreen
Experimental: To identify small-molecule inhibitors of the MSUT2 protein/poly(A) RNA interaction, a high-throughput AlphaScreen assay optimized for detecting recombinant GST-MSUT2 binding to synthetic poly(A) RNA. The MSUT2 AlphaScreen assay has been well optimized during its development for 384-well screening (z-score=0.96). Two high throughput AlphaScreens of 53,400 distinct small molecules have been completed. A multi-point dose analysis pilot screen of the Spectrum Collection was performed. […] Both the pilot screen and the screening approaches disclosed herein use the Quellos High-Throughput Screening Core at the University of Washington (UW).
Assay of inhibitor dose dependence. Hits identified in the pilot screen were validated by retesting resynthesized compounds over a wide concentration range. […] These hits will be validated by conducting a 14-point dose-response analysis with a drug concentration range from 100 μM down to 1.4 nM; the MSUT2/poly(A) RNA AlphaScreen Assay will be used to produce a readout. From this dose-response analysis, IC50 values will be calculated for dose-responsive hits. For the full scale screen 64 primary hits were identified and will be subject to dose validation as described for pilot screen compounds (and Ebselen, shown in FIG. 20).
The steps and set up for performing the ALPHA assay for MSUT2 binding to polyA are as follows: • 1. Dilutions are in assay buffer (1×PAMA final concentration). • 2. Scale is for 96 well assay in PE […] ½ area plate (total volume/well is 50 μL). • 3. Assays set up in low light conditions • 4. Add 20 μL of diluted donor bead (10 ug/mL) to well bringing well volume to 20 μL • 5. Add 10 μL diluted biotin RNA (15 nM)) bringing well volume to 30 μL • 6. Add 10 μL diluted GST-MSUT2 Protein (125 nM)) bringing well volume to 40 μL • 7. Incubate at room temp for 30 minutes in the dark • 8. Add 10 μl of diluted Acceptor bead (2.5 μg/mL) to well bringing well volume to 50 • 9. Incubate at room temp for 60 minutes in the dark • 10. Read Plate using standard AlphaAssay settings on Perkin Elmer EnSpire® Alpha microplate reader

[2] = system: wild type or MSUT2 KO mice; assay: Kainic acid induced gliosis in mice; type: in vivo, mouse; conditions: hippocampi 3 days after single 25 mg/kg i.p.
Experimental: Shown are the hippocampi of wild type or MSUT2 KO mice 3 days after KA treatment (a single dose of 25 mg/kg KA administered i.p.). […] Scale bar=500 μm.

[3] = molecular target: biotinylated poly(A)15 RNA; assay: Surface plasmon resonance (Biacore) binding to poly(A) RNA; conditions: poly(A)15, five protein concentrations 1-0.6 μM
Experimental: Surface plasmon pesonance. SPR experiments were conducted on a Biacore T200 using the Biotin Capture Kit Series S following the manufacturer's instructions (GE). Biotin capture reagent was applied to the sensor chip at a flow rate of 2 μl/minute for 300 seconds. 1 nM biotinylated RNA (BiotinTEG-AAAAAAAAAAAAAAA; SEQ ID NO: 25) was captured at a flow rate of 10 μl/minute for 180 seconds. Samples were flowed across the sensor chip at 50 μl/minute for 120 seconds and the chip was regenerated for 120 seconds at a flow rate of 10 μl/minute. KD values for binding and disassociation were calculated from the binding kinetics of each protein at five concentrations using the Biacore T200 Software v3.1 application package (GE; 1, 0.9, 0.8, 0.7, 0.6 μM).

| Molecule | IC50 [1] [nM] | Kd [3] [nM] | further results |
| --- | --- | --- | --- |
| O=S(=O)(O)c1cc(N=C=S)ccc1C=Cc1ccc(N=C=S)cc1S(=O)(=O)O [4,4′-Diisothiocyano-stilbene-2,2′ sulfonic acid] | 6800 | – | – |
| O=c1c2ccccc2[se]n1-c1ccccc1 [Ebselen] | 1600 | – | – |
| C=C(C)[C@H]1CN[C@H](C(=O)O)[C@H]1CC(=O)O [Kainic Acid] | – | – | gliotic response (astrocytosis, IHC for GFAP) [2]: obvious and strong gliotic response |
| COc1cc2c(cc1OC)-c1cc3ccc(OC)c(OC)c3c[n+]1CC2 [Palmatine] | 1700 | – | – |
| PABPN1: recombinant polyadenylate-binding nuclear protein 1 (protein, UniProt Q86U42 2-306, looked up) Polyadenylate-binding protein …: AAAAAAAAAAGAAGGRGSGPGRRRHLVPGAGGEAGEGAPGGAGDYGNGLESEELEPEELLLEPEPEPEPEEEPPRPRAPPGAPGPGPGSGAPGSQEEEEEPGLVEGDPGDGAIEDPELEAIKARVREMEEEAEKLKELQNEVEKQMNMSPPPGNAGPVIMSIEEKMEADARSIYVGNVDYGATAEELEAHFHGCGSVNRVTILCDKFSGHPKGFAYIEFSDKESVRTSLALDESLFRGRQIKVIPKRTNRPGISTTDRGFPRARYRARTTNYNSSRSRFYSGFNSRPRGRVYRGRARATSWYSPY | – | 237 ± 21 | – |
| MSUT2: recombinant mammalian suppressor of tauopathy 2, poly(A) RNA binding protein (protein) MEIGTEISRKIRSAIKGKLQELGAYVDEELPDYIMVMVANKKSQDQMTEDLSLFLGNNTIRFTVWLHGVLDKLRSVTTEPSSLKSSDTNIFDSNVPSNKSNFSRGDERRHEAAVPPLAIPSARPEKRDSRVSTSSQESKTTNVRQTYDDGAATRLMSTVKPLREPAPSEDVIDIKPEPDDLIDEDLNFVQENPLSQKKPTVTLTYGSSRPSIEIYRPPASRNADSGVHLNRLQFQQQQNSIHAAKQLDMQSSWVYETGRLCEPEVLNSLEETYSPFFRNNSEKMSMEDENFRKRKLPVVSSVVKVKKFNHDGEEEEEDDDYGSRTGSISSSVSVPAKPERRPSLPPSKQANKNLILKAISEAQESVTKTTNYSTVPQKQTLPVAPRTRTSQEELLAEVVQGQSRTPRISPPIKEEETKGDSVEKNQGTQQRQLLSRLQIDPVMAETLQMSQDYYDMESMVHADTRSFILKKPKLSEEVVVAPNQESGMKTADSLRVLSGHLMQTRDLVQPDKPASPKFIVTLDGVPSPPGYMSDQEEDMCFEGMKPVNQTAASNKGLRGLLHPQQLHLLSRQLEDPNGSFSNAEMSELSVAQKPEKLLERCKYWPACKNGDECAYHHPISPCKAFPNCKFAEKCLFVHPNCKYDAKCTKPDCPFTHVSRRIPVLSPKPAVAPPAPPSSSQLCRYFPACKKMECPFYHPKHCRFNTQCTRPDCTFYHPTINVPPRHALKWIRPQTSE | – | 60 ± 15 | – |

— patent publication US11439658B2, “Compositions and methods for suppressing MSUT2” (United States Government As Represented By The Department …, priority 2018, dated 2022)
